# Experimental data reported in patent US5344831A, “Diazabicyclo derivatives” (Nisshin Flour Milling Co., Ltd., priority 1992, dated 1994).
# Structures can show the parent of a compound that is named as a salt.
# Assays:
# 5-HT3 receptors = assay: antagonism of the von Bezold-Jarisch reflex (bradycardia) induced by 5-HT in the anaesthetised rat; assay type: in vivo; details: 5-HT 30 μg/kg given 5 min later, tested as hydrochloride salts
# Description: Temporary bradycardia is induced by administration of 5-HT (serotonin) to anaesthetised rats via jugular vein (yon Bezold Jarisch Reflex) (A. S. Paintal, Physiol. Rev., 53, 159-210 (1973 ) ).
# The compounds of the present invention were evaluated for antagonism of the yon Bezold-Jarisch reflex induced by 5-HT in the anaesthetised rat according to the following method.
# Rats were anaesthetised with urethane (1 g/kg, intraperitoneally ) and blood pressure and heart rate recorded from left femoral artery. Percent inhibition was calculated from bradycardia induced by 5-HT (30 μg/kg ) given 5 minutes following intrajugular administration of a compound of the invent ion, taking the bradycardia induced by the intrajugular administration of 5-HT. The compounds of the present invention were tested in the form of their hydrochloride salts.
# nausea and vomiting = details: intravenous administration at high dose; Gralla et al, N. Engl. J. Med. 305, 905-909 (1981); cited from earlier work
Compound,Percent Inhibition (5-HT3 receptors; 0.01 μg/kg i.v.) [%],Percent Inhibition (5-HT3 receptors; 0.1 μg/kg i.v.) [%],Percent Inhibition (5-HT3 receptors; 1.0 μg/kg i.v.) [%],Percent Inhibition (5-HT3 receptors; 10 μg/kg i.v.) [%],prevention of nausea and vomiting (nausea and vomiting)
"C=CCn1nc(C(=O)N[C@@H]2C[C@@H]3CN(C)C[C@H](C2)N3C)c2ccccc21 [Example 2, endo-3,9-Dimethyl-3,9-diazabicyclo[3.3.1]non-7-yl 1-allylindazole-3-carboxamide hydrochloride]",11,86,–,–,–
"CN1C[C@H]2C[C@@H](NC(=O)c3nn(CC4CCCCC4)c4ccccc34)C[C@@H](C1)N2C [Example 3, endo-3,9-Dimethyl-3,9-diazabicyclo[3.3.1]non-7-yl 1-cyclohexylmethylindazole-3-carboxamide]",–,13,70,–,–
CN1C[C@H]2C[C@@H](NC(=O)c3nn(CC4CC4)c4ccccc34)C[C@@H](C1)N2C [Example 4],–,60,–,–,–
COc1ccc(Cn2nc(C(=O)N[C@@H]3C[C@@H]4CN(C)C[C@H](C3)N4C)c3ccccc32)cc1 [Example 5],–,29,44,91,–
"C=CCCCCCCn1nc(C(=O)N[C@@H]2C[C@@H]3CN(C)C[C@H](C2)N3C)c2ccccc21 [Example 6, endo-3,9-Dimethyl-3,9-diazabicyclo[3.3.1]non-7-yl 1-(7octenyl) indazole-3-carboxamide]",–,19,35,87,–
"C#CCn1nc(C(=O)N[C@@H]2C[C@@H]3CN(C)C[C@H](C2)N3C)c2ccccc21 [Example 7, endo-3,9-Dimethyl-3,9-diazabicyclo[3.3-1]non-7-Yl 1-(2propynyl) indazole-3-carboxamide]",–,30,83,–,–
"CC(C)=CCn1nc(C(=O)N[C@@H]2C[C@@H]3CN(C)C[C@H](C2)N3C)c2ccccc21 [Example 8, endo-3,9-Dimethyl-3,9-diazabicyclo[3.3.1]non-7-yl 1-(3-methyl-2-butenyl) indazole-3-carboxamide]",–,48,100,–,–
"CN1C[C@H]2C[C@@H](NC(=O)c3nn(Cc4ccc([N+](=O)[O-])cc4)c4ccccc34)C[C@@H](C1)N2C [Example 9, endo-3,9-Dimethyl-3,9-diazabicyclo[3.3.1]non-7-yl 1-(4nitrobenzyl) indazole-3-carboxamide]",14,41,96,–,–
"CN1C[C@H]2C[C@@H](NC(=O)c3nn(CC#N)c4ccccc34)C[C@@H](C1)N2C [Example 10, endo-3,9-Dimethyl-3,9-diazabicyclo[3.3.1]non-7-yl 1-cyanomethylindazole-3-carboxamide]",–,37,100,–,–
"CN1C[C@H]2C[C@@H](NC(=O)c3nn(Cc4ccc(C(C)(C)C)cc4)c4ccccc34)C[C@@H](C1)N2C [Example 11, endo-3,9-Dimethyl-3,9-diazabicyclo[3.3.1]non-7-yl 1-(4-tert-butylbenzyl) indazole-3-carboxamide]",–,39,53,–,–
"CC(=O)Cn1nc(C(=O)N[C@@H]2C[C@@H]3CN(C)C[C@H](C2)N3C)c2ccccc21 [Example 12, endo-3,9-Dimethyl-3,9-diazabicyclo[3.3.1]non-7-yl 1-(2-oxopropyl) indazole-3-carboxamide]",45,57,72,–,–
"CN1C[C@H]2C[C@@H](NC(=O)c3nn(Cc4cccc(Cl)c4)c4ccccc34)C[C@@H](C1)N2C [Example 13, endo-3,9-Dimethyl-3,9-diazabicyclo[3.3.1]non-7-yl 1-(3-chlorobenzyl)indazole-3-carboxamide]",–,27,71,–,–
"CN1C[C@H]2C[C@@H](NC(=O)c3nn(Cc4ccccc4[N+](=O)[O-])c4ccccc34)C[C@@H](C1)N2C [Example 14, endo-3,9-Dimethyl-3,9-diazabicyclo[3.3.1]non-7-yl 1-(2-nitrobenzyl) indazole-3-carboxamide]",–,18,97,–,–
"CN1C[C@H]2C[C@@H](NC(=O)c3nn(Cc4ccccn4)c4ccccc34)C[C@@H](C1)N2C [Example 15, endo-3,9-Dimethyl-3,9-diazabicyclo[3.3.1]non-7-yl 1-(2-pyridylmethyl) indazole-3-carboxamide]",–,47,–,–,–
"COC(=O)Cn1nc(C(=O)N[C@@H]2C[C@@H]3CN(C)C[C@H](C2)N3C)c2ccccc21 [Example 16, endo-3,9-Dimethyl-3,9-diazabicyclo[3.3.1]non-7-yl 1-methoxycarbonylmethylindazole-3-carboxamide]",–,34,–,88,–
"CCOCCn1nc(C(=O)N[C@@H]2C[C@@H]3CN(C)C[C@H](C2)N3C)c2ccccc21 [Example 17, endo-3,9-Dimethyl-3,9-diazabicyclo[3.3.1]non-7-yl 1-ethoxyethylindazole-3-carboxamide]",33,53,–,–,–
"CC(C)COC(=O)n1nc(C(=O)N[C@@H]2C[C@@H]3CN(C)C[C@H](C2)N3C)c2ccccc21 [Example 18, endo-3,9-Dimethyl-3,9-diazabicyclo[3.3.1]non-7-yl 1-isobutoxycarbonylindazole-3-carboxamide]",–,23,53,–,–
"CC(O)Cn1nc(C(=O)N[C@@H]2C[C@@H]3CN(C)C[C@H](C2)N3C)c2ccccc21 (stereo partly drawn) [Example 19, endo-3,9-Dimethyl-3,9-diazabicyclo[3.3.1]non-7-yl 1-(2hydroxypropyl) indazole-3-carboxamide]",40,59,–,–,–
"CN1C[C@H]2C[C@@H](NC(=O)c3nn(Cc4ccc(N)cc4)c4ccccc34)C[C@@H](C1)N2C [Example 20, endo-3,9-Dimethyl-3,9-diazabicyclo[3.3.1]non-7-yl 1-(4aminobenzyl) indazole-3-carboxamide]",51,73,–,–,–
CN1C[C@H]2C[C@@H](NC(=O)c3nn(Cc4nc(N)nc(N)n4)c4ccccc34)C[C@@H](C1)N2C [Example 21],21,38,85,–,–
"CN1[C@@H]2C[C@@H](NC(=O)c3n[nH]c4ccccc34)C[C@H]1CN(Cc1ccccc1)C2 [Example 22, endo-3-Benzyl-9-methyl-3,9-diazabicyclo[3.3.1]non-7-yl 1H-indazole-3-carboxamide]",–,48,87,–,–
"CN1[C@@H]2CNC[C@H]1C[C@@H](NC(=O)c1n[nH]c3ccccc13)C2 [Example 23, endo-9-Methyl-3,9-diazabicyclo[3.3.1]non-7-yl 1H-indazole-3-carboxamide]",–,28,82,–,–
"CN1C[C@H]2C[C@@H](NC(=O)c3n[nH]c4ccccc34)C[C@@H](C1)N2Cc1ccccc1 [Example 24, endo-9-Benzyl-3-methyl-3,9-diazabicyclo[3.3.1]non-7-yl 1H-indazole-3-carboxamide]",–,35,–,–,–
"CN1C[C@H]2C[C@@H](NC(=O)c3n[nH]c4ccccc34)C[C@@H](C1)N2 [Example 25, endo-3-Methyl-3,9-diazabicyclo[3.3.1]non-7-yl 1H-indazole-3-carboxamide]",–,21,–,–,–
"C=CCN1C[C@H]2C[C@@H](NC(=O)c3n[nH]c4ccccc34)C[C@@H](C1)N2C [Example 26, endo-3-Allyl-9-methyl-3,9-diazabicyclo[3.3.1]non-7-yl 1H-indazole-3-carboxamide]",–,38,–,–,–
"CN1[C@@H]2C[C@@H](NC(=O)c3n[nH]c4ccccc34)C[C@H]1CN(Cc1ccc(F)cc1)C2 [Example 27, endo-3-(4-Fluorobenzyl)-9-methyl-3,9-diazabicyclo[3.3.1]non-7-yl 1H-indazole-3-carboxamide]",–,75,98,–,–
"CC(=O)N1C[C@H]2C[C@@H](NC(=O)c3n[nH]c4ccccc34)C[C@@H](C1)N2C [Example 28, endo-3-Acetyl-9-methyl-3,9-diazabicyclo[3.3.1]non-7-yl 1H-indazola-3-carboxamide]",–,23,71,–,–
"CC(C)CN1C[C@H]2C[C@@H](NC(=O)c3n[nH]c4ccccc34)C[C@@H](C1)N2C [Example 29, endo-3-Isobutyl-9-methyl-3,9-diazabicyclo[3.3.1]non-7-yl 1H-indazole-3-carboxamide]",27,81,–,–,–
"CCOCCN1C[C@H]2C[C@@H](NC(=O)c3n[nH]c4ccccc34)C[C@@H](C1)N2C [Example 30, endo-3-(2-Ethoxyethyl)-9-methyl-3,9-diazabicyclo[3.3.1]non-7-yl 1H-indazole-3-carboxamide]",–,52,100,–,–
CCN(CC)CCNC(=O)c1cc(Cl)c(N)cc1OC [metoclopramide],–,–,–,–,effectively prevented
